Each structure is given as a SMILES string.

The subject of test [1] is NADPH oxidase activity in fMLP-challenged HL60 cells. Nature of the test: fMLP-dependent superoxide production (NBT) in differentiated HL60 cells. Type of test: cell-based, human. The note with it: 10 μM compounds or 100 nM wortmannin, 250 nM fMLP; result in words. The method, then: Differentiated HL60 cells stably expressing GFP-PH-Akt were challenged with 250 nM fMLP in the presence and absence of 10 μM concentrations of the indicated compounds. Translocation of GFP-PH-Akt to the plasma membrane was evaluated by Western blot. Quantification shown below. ***, P<0.001 analysis of variance (ANOVA) is statistically different from control (PBS+vehicle). […] Differentiated HL60 cells were challenged with 1 μM fMLP in the presence and absence of 10 μM concentrations of the indicated compounds. Rac1 activation was assessed by Western blots of affinity-precipitated GTP-Rac1 from HL60 cell lysates. Western blot shown is representative of three independent experiments and quantitation contains data pooled from three independent experiments±S.E.M. *P<0.05 ANOVA is statistically different from control (DMSO only). n=3. […] Differentiated HL60 cells were challenged with 250 nM fMLP or 250 nM PMA in the presence and absence of 10 μM compounds or 100 nM Wortmannin (Wtmn). NADPH oxidase activity was determined after reaction with NBT by absorbance at 540 nm. Data shown is contains data pooled from three independent experiments (each in duplicate)±S.E.M. *, P<0.05 ANOVA is statistically different from control (DMSO only).
The nitro blue tetrazolium (NBT) method was used to assess the effects of Gβγ inhibitors on NADPH oxidase activity. HL60 cells (differentiated for 4 days) were washed with and resuspended in HBSS containing calcium and magnesium (Cellgro; Mediatech, Herndon Va.) to a final concentration of 2×10^6 cells/ml. Cells (1×10^6/reaction) were pretreated with 10 μMGβγ inhibitor compound (in DMSO) or 100 nM wortmannin (Sigma Aldrich) for 10 min at 37° C. before the addition of NBT (25 μl of 10 mg/ml in methanol) and then incubated or an additional 5 min at 37° C. All treatments contained the same final concentration of DMSO. […] Cell pellets were then resuspended in 200 μl of DMSO, transferred to a 96-well plate, and absorbance was measured at 540 nm. […]

For test [2], the system named is primary human neutrophils. Nature of the test: fMLP-induced chemotaxis of primary human neutrophils (Boyden chamber). Type of test: cell-based. The following applies: 250 nM fMLP; for effect on fMLP-induced chemotaxis: 10 μM compound or 1 μM wortmannin, result in words. The method, then:
Differentiated HL60 cells (200 k) were pretreated with 10 μM concentrations of the indicated compound, challenged with 250 nM fMLP, and assayed for chemotaxis in a Boyden chamber for 1 h at 37° C. […] Chemotaxis was quantified as above by subtracting out background cells (0-10 cells) in the absence of chemoattractant to obtain total transmigrated cells (−100 cells GM-CSF+vehicle) and represented as the percentage of GM-CSF-treated control cells. No statistically significant difference from control was seen by ANOVA. […] Primary human neutrophils were isolated from whole blood to ≧80% purity. Neutrophils (2×10^5) were pretreated with gallein (10 μM), M119 (10 μM), M119B (10 μM), or wortmannin (wtmn.) (1 μM) and then challenged with 250 nM fMLP or 10 nM IL-8 to evaluate chemotaxis in a Boyden chamber for 1 h at 37° C. […] NS, not statistically different from control. […] Primary human neutrophils were isolated and treated (250 nM fMLP±gallein) as described above. Chemotaxis was quantified as above by subtracting out background cells to obtain total transmigrated cells and represented as the percentage of fMLP-treated control cells. Data shown are pooled from two independent experiments, each in duplicate, ±S.E.M.
Chemotaxis was assayed using a Boyden chamber (Neuro Probe, Gaithersburg, Md.) using 3-μm polyvinylpyrrolidone-free polycarbonate filters (Neuro Probe). HL60 cells (differentiated for 4 days) were washed with and resuspended in HBSS containing 1% bovine serum albumin to a final concentration of 1×10^6 cells/ml. Primary human neutrophils were washed and resuspended in NaCl buffer (140 mM NaCl, 4 mM KCl, 10 mM D-glucose, 10 mM HEPES, pH 7.4, 1 mM MgCl2, and 1 mM CaCl2) to a final concentration of 1×10^6 cells/mi. Chemoattractant [1 μM granulocyte-macrophage-colony stimulating factor (GM-CSF), 10 nM IL-8, or 250 nM fMLP; Sigma Aldrich] was added to the bottom chamber in HBSS containing 1% bovine serum albumin. Cell suspensions (0.2×10^6 cells/well) were added to the top wells of the Boyden chamber and allowed to migrate for 1 h at 37° C. When applicable, cell suspensions were preincubated for […] with small-molecule inhibitors (in DMSO) at the indicated concentrations, and the bottom chamber was adjusted to the same concentration of small molecule. All treatments contained the same final concentration of DMSO. […] Chemotactic HL60 cells were scored by counting three microscope fields and subtracting the number of cells from fMLP wells as background. […] For all the small molecules, effects of the compounds on chemokinesis was analyzed by measuring chemotaxis in the presence of 250 nM fMLP in both the upper and lower chambers of the Boyden Chamber and measuring changes in transwell migration. […]

For test [3], the system named is isolated adult mouse cardiomyocytes. Nature of the test: Contractility of isolated adult mouse cardiomyocytes. The following applies: result in words. Type of test: cell-based. Here is the method: Pretreatment with the general β-AR antagonist, propranolol, abolishes the effects of M119 and Iso on cardiomyocyte contractility.
The above data led to investigations that M119 plays a positive functional role in the heart, due in part to its inhibition of Gβγ-GRK2 interactions. Prior to pursuing in vivo studies with M119, the role of M119 affecting contractility was evaluated by assessment of isolated adult mouse cardiomyocyte contractility at baseline and in response to β-AR stimulation.
Mechanical properties of ventricular myocytes are assessed by an IonOptix Myocam system (IonOptix Inc., Milton, Mass., U.S.A.). Myocytes are superfused (at 25° C.) with Tyrodes, cells are pre-loaded in culture medium for 20 minutes with Fura-2, for concurrent calcium flux and myocyte contractility following field stimulation at 0.5 Hz.

In the case of `O=C(O)C1CCCCC1c1c2ccc(=O)cc-2oc2cc(O)ccc12` (stereo not shown) [Compound M119B], the “effect on fMLP-dependent superoxide production” value in test [1] is listed as “did not significantly affect”. Further, the “effect on fMLP-induced chemotaxis” value in test [2] was “no affect”. Further, the “effect on cardiomyocyte contractility at baseline and with isoproterenol” value (“effect on cardiomyocyte contractility” below) in test [3] is given as “no effect”.

For `O=C(O)C1CCCCC1c1c2ccc(=O)c(O)c-2oc2c(O)c(O)ccc12` (stereo not shown) [Compound M119, cyclohexanecarboxylic acid, 2-(4,5,6-trihydroxy-3-oxo-3H-xanthen-9-yl)-(9cl)], in test [1], the “effect on fMLP-dependent superoxide production” value is “significantly inhibited”. Moreover, the “effect on fMLP-induced chemotaxis” value in test [2] is on record as “significantly inhibited”. In test [3], the “effect on cardiomyocyte contractility” value is on record as “enhanced”.

On to `O=C(O)c1ccccc1-c1c2ccc(=O)c(O)c-2oc2c(O)c(O)ccc12` (racemic) [Gallein], for which the “effect on fMLP-dependent superoxide production” value in test [1] was “significantly inhibited”. Moreover, the “effect on fMLP-induced chemotaxis” value in test [2] is on record as “significantly inhibited”. In addition, the IC50 in test [2] (Homo sapiens, Neutrophil, read-out: IC50 for block of fMLP-dependent chemotaxis) was around 5 µM. Besides, the “effect on cardiomyocyte contractility” value in test [3] was “significant positive effects”.

These data come from US8975259B2, “Compositions and methods for inhibiting G protein signaling” (University of Rochester, priority 2007, dated 2015).
